Laboratory results published in BindingDB's records for PubMed 27607900 (Cardiff University, 2016).

Columns and labels:
Enterococcus faecalis = experiment: Antimicrobial activity against Enterococcus faecalis ATCC 29212 assessed as microbial growth inhibition
[1] = Inhibition of ACT (unknown origin)

IC50 [1] [nM]	SMILES	IC50 (Enterococcus faecalis) [nM]
	CCCC(C)CC(C)CC(C)/C=C(C)/C=C/C(O)C(C)C(=O)OC1C(O)CN2CC1NC[C@H]1O[C@@H](OC([C@H]3O[C@@H](n4ccc(=O)[nH]c4=O)[C@H](O)[C@@H]3OS(=O)(=O)O)C2C(=O)O)[C@H](O)[C@@H]1O (some centres not stated)	12
145	CC(C)OC(=O)[C@H](Cc1ccccc1)NP(=O)(N[C@@H](Cc1ccccc1)C(=O)OC(C)C)OCOCCn1cnc2c(N)nc(F)nc21	
